Where a SMILES comes first, the peptide text is derived from it. [ ]: non-standard residue; d: D form. Met(O2) = CS(=O)(=O)CC[C@H](N)C(=O)O
Columns and labels:
Plasminogen [1] = target: T1, Plasminogen (Homo sapiens, UniProt P00747); experiment: Inhibition of human plasmin assessed as km using S-2251 as the substrate
[2] = target: T2, Tissue-type plasminogen activator (Homo sapiens, UniProt P00750); experiment: Inhibition of human tissue-type plasminogen activator using Mes-d-Cha- Gly-Arg-pNA as substrate
T2 sequence (P00750 whole entry): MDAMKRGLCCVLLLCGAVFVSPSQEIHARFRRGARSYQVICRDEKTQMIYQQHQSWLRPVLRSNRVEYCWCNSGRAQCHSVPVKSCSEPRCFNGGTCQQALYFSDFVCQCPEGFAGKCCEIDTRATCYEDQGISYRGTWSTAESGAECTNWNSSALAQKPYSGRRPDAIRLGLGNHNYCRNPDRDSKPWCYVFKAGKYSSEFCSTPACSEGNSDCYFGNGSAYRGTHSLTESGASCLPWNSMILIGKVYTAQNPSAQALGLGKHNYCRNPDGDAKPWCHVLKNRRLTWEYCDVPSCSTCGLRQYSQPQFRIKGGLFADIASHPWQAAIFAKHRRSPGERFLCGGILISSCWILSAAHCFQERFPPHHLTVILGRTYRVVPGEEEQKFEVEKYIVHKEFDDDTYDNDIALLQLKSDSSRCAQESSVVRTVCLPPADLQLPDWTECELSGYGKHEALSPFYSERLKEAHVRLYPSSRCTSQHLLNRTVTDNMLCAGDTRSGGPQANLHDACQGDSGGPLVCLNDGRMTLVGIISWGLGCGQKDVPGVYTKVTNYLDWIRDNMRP

[3] = target: Vitamin K-dependent protein C (Homo sapiens, UniProt P04070); experiment: Inhibition of human activated protein […] C using H-D-Lys(Cbo)-Pro-Arg-pNA as substrate
Sequence of Vitamin K-dependent protein C (P04070 43-197 limits assumed): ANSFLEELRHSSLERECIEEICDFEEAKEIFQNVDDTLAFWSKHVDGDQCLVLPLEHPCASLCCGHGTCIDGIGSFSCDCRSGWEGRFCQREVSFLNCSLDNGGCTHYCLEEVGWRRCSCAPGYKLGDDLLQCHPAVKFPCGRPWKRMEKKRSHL
Sequence of Vitamin K-dependent protein C (P04070 212-461 limits assumed): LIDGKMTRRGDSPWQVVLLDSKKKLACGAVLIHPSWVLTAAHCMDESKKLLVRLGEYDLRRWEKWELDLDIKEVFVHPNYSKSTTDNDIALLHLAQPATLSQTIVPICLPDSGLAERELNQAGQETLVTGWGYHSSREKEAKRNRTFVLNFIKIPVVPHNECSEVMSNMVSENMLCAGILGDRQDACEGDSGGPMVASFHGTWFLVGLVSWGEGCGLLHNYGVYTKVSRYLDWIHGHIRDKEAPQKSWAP

[4] = Inhibition of human urinary kallikrein using H-D-Val-Leu-Arg-pNA as substrate
Coagulation factor XI = Coagulation factor XI (Homo sapiens, UniProt P03951); experiment: Inhibition of human factor 11a using H-D-Lys(Cbo)-Pro-Arg-pNA as substrate
Sequence of Coagulation factor XI (P03951 19-387 limits assumed): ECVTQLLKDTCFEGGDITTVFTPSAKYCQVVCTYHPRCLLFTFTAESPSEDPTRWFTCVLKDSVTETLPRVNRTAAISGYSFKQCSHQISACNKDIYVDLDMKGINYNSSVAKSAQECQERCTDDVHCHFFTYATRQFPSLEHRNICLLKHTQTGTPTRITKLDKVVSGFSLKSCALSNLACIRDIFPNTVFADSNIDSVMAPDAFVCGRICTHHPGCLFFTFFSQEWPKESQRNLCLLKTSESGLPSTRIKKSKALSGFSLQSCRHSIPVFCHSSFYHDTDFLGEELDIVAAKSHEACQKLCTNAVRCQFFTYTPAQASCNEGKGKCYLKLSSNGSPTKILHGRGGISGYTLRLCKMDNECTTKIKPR
Sequence of Coagulation factor XI (P03951 388-625 limits assumed): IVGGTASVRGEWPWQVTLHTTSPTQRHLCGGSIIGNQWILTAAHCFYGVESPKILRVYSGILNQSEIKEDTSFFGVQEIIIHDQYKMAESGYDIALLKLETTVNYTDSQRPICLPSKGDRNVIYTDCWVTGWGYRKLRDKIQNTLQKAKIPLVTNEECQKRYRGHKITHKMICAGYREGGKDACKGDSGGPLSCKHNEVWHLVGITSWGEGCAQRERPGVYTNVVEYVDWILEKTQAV

Coagulation factor X [5] = target: T3, Coagulation factor X (Homo sapiens, UniProt P00742); experiment: Inhibition of human factor 10a using MeOCO-d-Cha-Gly-Arg-pNA as substrate
T3 sequence (P00742 41-179 limits assumed): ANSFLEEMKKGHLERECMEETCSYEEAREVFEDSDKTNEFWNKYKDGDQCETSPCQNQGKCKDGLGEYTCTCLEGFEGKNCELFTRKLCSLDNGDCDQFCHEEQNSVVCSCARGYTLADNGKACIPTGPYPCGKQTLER
T3 sequence (P00742 235-488 limits assumed): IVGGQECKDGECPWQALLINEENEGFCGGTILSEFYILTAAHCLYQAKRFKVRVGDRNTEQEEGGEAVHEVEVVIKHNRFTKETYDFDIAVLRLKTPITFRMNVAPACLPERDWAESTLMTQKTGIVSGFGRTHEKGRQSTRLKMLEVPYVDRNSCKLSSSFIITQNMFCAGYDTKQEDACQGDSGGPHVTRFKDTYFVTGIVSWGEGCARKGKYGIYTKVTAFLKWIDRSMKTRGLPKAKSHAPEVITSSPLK

[6] = target: T4, Complement C1s subcomponent (Homo sapiens, UniProt P09871); experiment: Inhibition of human Complement C1s subcomponent using Val-Ser-Arg-pNA as substrate
T4 sequence (P09871 whole entry): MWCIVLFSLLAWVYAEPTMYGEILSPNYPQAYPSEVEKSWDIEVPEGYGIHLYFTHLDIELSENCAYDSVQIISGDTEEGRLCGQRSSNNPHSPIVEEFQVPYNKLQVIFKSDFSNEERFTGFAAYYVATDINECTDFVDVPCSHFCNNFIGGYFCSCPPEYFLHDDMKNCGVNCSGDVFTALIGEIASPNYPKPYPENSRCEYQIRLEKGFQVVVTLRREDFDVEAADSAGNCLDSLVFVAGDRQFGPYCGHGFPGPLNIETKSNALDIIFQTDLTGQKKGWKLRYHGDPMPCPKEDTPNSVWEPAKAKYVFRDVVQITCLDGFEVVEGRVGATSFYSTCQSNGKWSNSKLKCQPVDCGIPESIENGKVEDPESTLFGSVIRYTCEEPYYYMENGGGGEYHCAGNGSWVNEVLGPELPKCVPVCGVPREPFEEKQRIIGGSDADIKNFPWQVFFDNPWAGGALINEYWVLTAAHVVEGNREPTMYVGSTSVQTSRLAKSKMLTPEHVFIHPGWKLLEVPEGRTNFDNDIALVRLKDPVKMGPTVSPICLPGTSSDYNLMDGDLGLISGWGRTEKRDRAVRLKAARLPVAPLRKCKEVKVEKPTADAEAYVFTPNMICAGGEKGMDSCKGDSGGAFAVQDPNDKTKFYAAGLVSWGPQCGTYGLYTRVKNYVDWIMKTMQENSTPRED

[7] = target: T5, Complement C1r subcomponent (Homo sapiens, UniProt P00736); experiment: Inhibition of human Complement C1r subcomponent using Val-Ser-Arg-pNA as substrate
T5 sequence (P00736 whole entry): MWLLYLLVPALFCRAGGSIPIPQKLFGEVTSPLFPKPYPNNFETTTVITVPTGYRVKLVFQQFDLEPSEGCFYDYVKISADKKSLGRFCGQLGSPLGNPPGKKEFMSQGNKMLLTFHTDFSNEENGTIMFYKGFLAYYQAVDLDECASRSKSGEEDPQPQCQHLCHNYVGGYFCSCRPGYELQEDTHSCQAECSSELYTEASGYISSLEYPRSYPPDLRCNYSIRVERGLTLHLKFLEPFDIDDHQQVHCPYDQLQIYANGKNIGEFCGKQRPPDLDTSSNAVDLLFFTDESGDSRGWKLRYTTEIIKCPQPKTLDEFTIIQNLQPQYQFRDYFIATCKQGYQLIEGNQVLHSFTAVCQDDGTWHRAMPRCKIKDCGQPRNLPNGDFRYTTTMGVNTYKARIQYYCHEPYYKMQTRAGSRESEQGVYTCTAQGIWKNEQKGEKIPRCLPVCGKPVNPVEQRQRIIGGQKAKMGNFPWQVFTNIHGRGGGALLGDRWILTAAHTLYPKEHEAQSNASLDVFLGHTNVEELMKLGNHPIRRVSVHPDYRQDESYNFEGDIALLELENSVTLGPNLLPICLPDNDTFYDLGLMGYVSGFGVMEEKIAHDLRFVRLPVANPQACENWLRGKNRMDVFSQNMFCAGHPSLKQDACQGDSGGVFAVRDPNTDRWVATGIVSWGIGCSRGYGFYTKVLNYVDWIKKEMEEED

Prothrombin [8] = target: T6, Prothrombin (Homo sapiens, UniProt P00734); experiment: Inhibition of human factor 2a using Mes-d-Cha-Gly-Arg-pNA as substrate
Coagulation factor XII = target: T7, Coagulation factor XII (Homo sapiens, UniProt P00748); experiment: Inhibition of human factor 12a using CHA-Gly-Arg- pNA as substrate
T7 sequence (P00748 whole entry): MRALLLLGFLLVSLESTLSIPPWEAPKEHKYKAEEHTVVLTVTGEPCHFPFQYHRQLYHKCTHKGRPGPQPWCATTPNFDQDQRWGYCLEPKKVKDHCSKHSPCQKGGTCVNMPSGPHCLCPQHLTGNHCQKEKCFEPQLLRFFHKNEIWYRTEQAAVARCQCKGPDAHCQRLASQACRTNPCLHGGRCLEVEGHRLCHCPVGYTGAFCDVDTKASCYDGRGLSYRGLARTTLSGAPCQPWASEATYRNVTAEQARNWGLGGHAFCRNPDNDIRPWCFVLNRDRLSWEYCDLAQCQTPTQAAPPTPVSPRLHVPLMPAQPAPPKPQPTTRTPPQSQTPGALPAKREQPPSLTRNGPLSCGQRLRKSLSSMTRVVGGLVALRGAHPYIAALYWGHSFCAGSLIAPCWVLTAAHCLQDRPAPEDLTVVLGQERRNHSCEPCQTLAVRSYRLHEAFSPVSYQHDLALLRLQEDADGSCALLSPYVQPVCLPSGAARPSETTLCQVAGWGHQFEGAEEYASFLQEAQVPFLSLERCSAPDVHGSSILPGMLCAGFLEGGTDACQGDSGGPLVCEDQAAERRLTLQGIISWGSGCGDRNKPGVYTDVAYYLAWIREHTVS

Plasminogen [9] = target: T1, Plasminogen; experiment: Inhibition of human plasmin using S-2251 as substrate after 30 mins by spectrophotometric method
Plasminogen [10] = target: T1, Plasminogen; experiment: Inhibition of human plasmin assessed as reduction in proteolysis activity in presence of fibrinogen after 90 mins by SDS-PAGE analysis
Plasminogen [11] = target: T1, Plasminogen; experiment: Inhibition of plasmin (unknown origin)
[12] = target: T2, Tissue-type plasminogen activator; experiment: Inhibition of tissue-type plasminogen activator (unknown origin)
[13] = target: T8, Urokinase-type plasminogen activator (Homo sapiens, UniProt P00749); experiment: Inhibition of urokinase-type plasminogen activator (unknown origin)
Coagulation factor X [14] = target: T3, Coagulation factor X; experiment: Inhibition of human factor 10a (unknown origin) assessed as reduction in hydrolysis activity preincubated for 10 mins followed by spectrozyme FXa
Prothrombin [15] = target: T6, Prothrombin; experiment: Inhibition of thrombin (unknown origin) assessed as reduction in hydrolysis activity preincubated for 10 mins followed by spectrozyme TH
[16] = target: T8, Urokinase-type plasminogen activator; experiment: Inhibition of human urokinase-type plasminogen activator using S-2444 as substrate
Blood = experiment: Anti-fibrinolytic activity in human whole blood assessed as reduction in clot lysis incubated for 5 mins in presence of tissue-type plasminogen activator by rotational thromboelastometry; assay type: functional, tissue-based
Plasminogen [17] = target: T1, Plasminogen; experiment: Inhibition of plasmin (unknown origin) using D-Val-Leu-Lys-p-nitroanilide as substrate
Plasminogen [18] = target: T1, Plasminogen; experiment: Competitive inhibition of human plasmin assessed as reduction in hydrolytic activity using S-2251 as substrate by spectrophotometric method
[19] = Half life in rat, iv; assay type: ADME; conditions: in vivo
[20] = Plasma concentration in human at 0.219 mg/kg/h by liquid chromatography-tandem mass spectrometry; assay type: ADME, organism-based; conditions: in vivo
[21] = Half life in dog, iv; assay type: ADME, Canis lupus familiaris; conditions: in vivo
Plasminogen [22] = target: T1, Plasminogen; experiment: Inhibition of human plasmin assessed as reduction in fibrinolysis
Plasminogen [23] = target: T1, Plasminogen; experiment: Inhibition of plasmin (unknown origin) assessed as reduction in amidolytic activity using S-2251 as the substrate after 4 mins
Plasminogen [24] = target: T1, Plasminogen; experiment: Inhibition of human plasmin

T1 sequence (P00747 97-580 limits assumed): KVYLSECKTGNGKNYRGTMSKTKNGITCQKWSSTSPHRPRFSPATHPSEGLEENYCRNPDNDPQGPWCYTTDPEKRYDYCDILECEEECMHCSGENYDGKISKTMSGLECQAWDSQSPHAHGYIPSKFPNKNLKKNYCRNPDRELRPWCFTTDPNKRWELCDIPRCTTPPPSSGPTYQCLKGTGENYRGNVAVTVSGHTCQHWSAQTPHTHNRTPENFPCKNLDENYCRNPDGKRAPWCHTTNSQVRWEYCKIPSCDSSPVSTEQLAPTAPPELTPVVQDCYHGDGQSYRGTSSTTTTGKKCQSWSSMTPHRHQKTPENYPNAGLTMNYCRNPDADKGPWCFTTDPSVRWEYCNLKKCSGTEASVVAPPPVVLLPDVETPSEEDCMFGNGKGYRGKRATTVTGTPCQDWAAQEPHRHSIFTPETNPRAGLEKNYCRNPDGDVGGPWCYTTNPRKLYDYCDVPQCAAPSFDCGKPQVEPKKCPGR
T1 sequence (P00747 581-810 limits assumed): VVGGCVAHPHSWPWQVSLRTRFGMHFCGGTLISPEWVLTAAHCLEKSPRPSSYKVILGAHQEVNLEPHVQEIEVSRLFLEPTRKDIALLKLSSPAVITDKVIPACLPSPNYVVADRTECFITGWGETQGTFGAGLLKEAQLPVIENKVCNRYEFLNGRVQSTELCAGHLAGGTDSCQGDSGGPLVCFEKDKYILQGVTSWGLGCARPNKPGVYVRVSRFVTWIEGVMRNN

Q: Which Km (Plasminogen [1]) does the source give for `CC[C@@H](C)[C@@H](N)C(=O)N[C@@H](Cc1ccccc1)C(=O)N[C@@H](CCCCN)C(=O)Nc1ccc([N+](=O)[O-])cc1` here?
A: 30 µM

Q: Which results are given for `N=C(N)c1ccc(CNC(=O)[C@H](CCC2CCNCC2)NC(=O)[C@@H](CCCc2ccccc2)NS(=O)(=O)Cc2ccccc2)cc1`?
A: Ki [2]: > 0.13 µM; Ki [3]: > 0.13 µM; Ki [4]: > 0.13 µM; Ki (Coagulation factor XI): > 0.13 µM; Ki (Coagulation factor X [5]): > 0.13 µM; Ki [6]: > 0.13 µM; Ki [7]: > 0.13 µM; Ki (Prothrombin [8]): > 0.13 µM; Ki (Coagulation factor XII): > 0.13 µM

Q: With `N=C(N)Nc1ccc(C(=O)Oc2ccc(S(N)(=O)=O)cc2)cc1` as the compound, how does the Ki (Plasminogen [9]) read?
A: 0.31 µM

Q: Which Ki (Plasminogen [10]) does the source give for `CC(=O)N[C@@H](CCCCN)C(=O)N[C@@H](CCS(C)(=O)=O)C(=O)N[C@@H](Cc1ccc(O)cc1)C(=O)N[C@H](C=O)CCCNC(=N)N` (Ac-K[Met(O2)]YR-aldehyde) here?
A: 0.0033 µM

Q: What does the source list for `N=C(N)c1ccc(CNC(=O)[C@@H]2CCN2C(=O)[C@H](NCC(=O)O)C2CCCCC2)cc1`?
A: Ki (Plasminogen [11]): 0.7 µM; Ki [12]: 0.9 µM; Ki [13]: 6.3 µM

Q: For `O=c1c(OS(=O)(=O)O)c(-c2ccc(OS(=O)(=O)O)c(OS(=O)(=O)O)c2)oc2cc(OS(=O)(=O)O)cc(OCc3cn(CCCCCCCCn4c(-c5ccc(OS(=O)(=O)O)cc5)nc5ccccc5c4=O)nn3)c12`, which IC50 (Coagulation factor X [14]) is on record?
A: > 250 µM

Q: And the IC50 (Prothrombin [15])?
A: > 500 µM

Q: Which Ki [16] does the source give for `NC[C@H]1CC[C@H](C(=O)O)CC1` [TRANEXAMIC ACID] here?
A: 2000 µM

Q: What about the IC50 (Blood) of the same compound?
A: 2.75 µM

Q: With `O=C(CCC1CCCC(NC(=O)[C@H](Cc2c[nH]c3ccccc23)NC(=O)OCc2ccccc2)C1=O)N[C@@H](Cc1c[nH]c2ccccc12)C(=O)O` (mixture of isomers) as the compound, how does the Ki (Plasminogen [17]) read?
A: 5 to 10 µM

Q: For `CCOC(=O)c1ccc(OC(=O)CCCCCNC(=N)N)cc1` [GABEXATE], which Ki (Plasminogen [18]) is on record?
A: 1.9 µM

Q: With `N=C(N)c1ccc(CNC(=O)[C@H](Cc2cccc(CN)c2)NC(=O)[C@@H](CCCc2ccccc2)NS(=O)(=O)Cc2cccc(C(=O)O)c2)cc1` as the compound, how does the half-life [19] read?
A: 20 min

Q: What about the concentration [20] of the same compound?
A: 0.9 µM

Q: And the half-life [21]?
A: 20 min

Q: And the IC50 (Blood)?
A: 0.15 µM

Q: For `NCCCC[C@H](NC(=O)[C@H]1CC[C@H](CN)CC1)C(=O)Nc1ccc(C(=O)c2ccccc2)cc1`, which IC50 (Plasminogen [22]) is on record?
A: 6.1 µM

Q: And the IC50 (Plasminogen [23])?
A: 15 µM

Q: Which Ki (Plasminogen [24]) does the source give for `N=C(N)c1cccc(C[C@H](NS(=O)(=O)c2ccc3ccccc3c2)C(=O)N2CCCC(C(=O)NCc3cccs3)C2)c1` (stereo partly drawn) here?
A: 0.14 µM

Source: ChEMBL document CHEMBL4354815, “Fibrinolysis Inhibitors: Potential Drugs for the Treatment and Prevention of Bleeding” (J Med Chem, 2020)
